Experimental data from BindingDB's records for doi:10.1021/ml3000879 (2012).

target: Dual specificity protein kinase TTK (Homo sapiens) (UniProt P33981); experiment: Inhibition of Mps1-mediated p38 MAPK phosphorylation after 90 mins by DELFIA assay

Compound | IC50 [nM]
CCOc1nc(C(=O)NCc2ccc(S(C)(=O)=O)cc2)cc(N)c1C#N [4-amino-5-cyano-6-ethoxy-N-[(4-methanesulfonylphenyl)methyl]pyridine-2-carboxamide] | 568
CCOc1nc(Nc2ccc(C(N)=O)cc2)cc(N)c1C#N | 37
CCOc1nc(Nc2ccccc2)cc(N)c1C#N | 228
CCOc1nc(C(=O)NCc2ccccc2)cc(N)c1C#N [4-Amino-5-cyano-6-ethoxy-pyridine-2-carboxylic acid benzylamide] | 529
CCOc1nc(NCCc2ccccc2)cc(N)c1C#N | 3970
CCOc1nc(NC(=O)Cc2ccccc2)cc(N)c1C#N [N-(4-Amino-5-cyano-6-ethoxypyridin-2-yl)-2-phenylacetamide] | 4200

target: Dual specificity protein kinase TTK (Homo sapiens) (UniProt P33981); experiment: Inhibition of FLAG-tagged Mps1 autophosphorylation in human RERF-LC-AI cells expressing Tet-suppressible promotor after 3 hrs by immunoblotting

Compound | IC50 [nM]
CCOc1nc(Nc2ccc(C(N)=O)cc2)cc(N)c1C#N | 1800
